{"source": "patent US5080884A", "about": "“Hydrocarbylphenyl diaminodithiol radionuclide complexes and their use in imaging” (Medi-Physics, Inc., priority 1991, dated 1992)", "key": {"[1]": {"assay": "Biological distribution of Tc-99m complexes in rats (pentobarbital anesthesia)", "type": "in vivo, Female Sprague-Dawley rats", "settings": "average of 2 rats; for Blood, % Injected Dose/Gram Tissue / Brain, % Injected Dose/Gram Tissue / Heart, % Injected Dose/Gram Tissue: pentobarbital anesthesia; for Brain:Blood / Heart:Blood: ratio", "method": "Distribution of the Tc-99m labeled compounds was evaluated in rats. Female Sprague-Dawley rats weighing 140 to 220 g (average 170 g) were anesthetized with sodium pentobarbital and were injected in a tail vein with from 0.05 to 10 mCi of the Tc-99m labeled complex in a volume of 0.2 to 0.5 ml. At least two rats were injected for each time point.\nThe animals were sacrificed at 5 and 30 minutes after injection and selected organs were removed; the tails were discharged to avoid interference from the injection site. The radioactivity in each organ was measured at a standard geometry with a […] sodium iodide scintillation detector adjusted for the 140 KeV emission of Tc-99m. The organs were also weighed to one hundredth of a gram and the activity was calculated as a percent of administered dose per gram."}, "[2]": {"assay": "Electrophoresis of Tc-99m complex (NaH2PO4, pH 4.5)", "type": "physicochemical", "settings": "0.05 M NaH2PO4, pH 4.5, 300 volts, 30 min"}, "[3]": {"settings": "5 min after i.v. (tail vein) injection"}, "[4]": {"settings": "30 min after i.v. (tail vein) injection"}}}
{"substance": "Tc-99m complex of 2-(2-Butylthio-2-methylpropylamino)-1-(2-mercapto-2-methylpropylamino)-3-methylbenzene [Example 53]", "values": [{"measurement": "Blood, % Injected Dose/Gram Tissue", "setting": "[1]; [3]", "result": "0.76 % Injected Dose/Gram Tissue"}, {"measurement": "Brain, % Injected Dose/Gram Tissue", "setting": "[1]; [3]", "result": "0.29 % Injected Dose/Gram Tissue"}, {"measurement": "Heart, % Injected Dose/Gram Tissue", "setting": "[1]; [3]", "result": "1.58 % Injected Dose/Gram Tissue"}, {"measurement": "Blood, % Injected Dose/Gram Tissue", "setting": "[1]; [4]", "result": "0.41 % Injected Dose/Gram Tissue"}, {"measurement": "Brain, % Injected Dose/Gram Tissue", "setting": "[1]; [4]", "result": "0.29 % Injected Dose/Gram Tissue"}, {"measurement": "Heart, % Injected Dose/Gram Tissue", "setting": "[1]; [4]", "result": "0.85 % Injected Dose/Gram Tissue"}, {"measurement": "Brain:Blood", "setting": "[1]; 5 min after i.v. injection", "result": 0.38}, {"measurement": "Heart:Blood", "setting": "[1]; 5 min after i.v. injection", "result": 2.06}, {"measurement": "Brain:Blood", "setting": "[1]; 30 min after i.v. injection", "result": 0.71}, {"measurement": "Heart:Blood", "setting": "[1]; 30 min after i.v. injection", "result": 2.09}, {"measurement": "Electrophoresis", "setting": "[2]", "result": "neutral"}]}
